# Columns and labels:
# [1] = test system: Aβ40 in conditioned medium of cells stably expressing Amyloid Precursor Protein (APP); assay: In vitro BACE cell-based assay (Aβ40 in conditioned medium, sandwich ELISA); details: Homo sapiens, HEK293, average IC50, HEK cells; read-out: HEK cell assay
# In short: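 Conditioned medium from stably APP-expressing cells treated with compound dose series is assayed for Aβ40 by sandwich ELISA with time-resolved fluorescence detection. IC50 is calculated from percent inhibition of Aβ40 against compound concentration.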
# [2] = molecular target: Beta Secretase enzyme (BACE) (Homo sapiens, UniProt P56817); assay: In vitro enzymatic BACE FRET (fluorescence resonance energy transfer) assay; type: biochemical; details: average IC50, enzyme assay; read-out: BACE 1 FRET assay
# In short: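 Acetate buffer (0.05 M, pH 4.2), 10% DMSO final, 100 uM nonionic detergent genapol. Substrate addition (50 nM FRET peptide) initiates; one-hour incubation; Tris raises pH to neutrality before fluorescence measurement.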
# Sequence of Beta Secretase enzyme (BACE) (P56817 46-501, species assumed): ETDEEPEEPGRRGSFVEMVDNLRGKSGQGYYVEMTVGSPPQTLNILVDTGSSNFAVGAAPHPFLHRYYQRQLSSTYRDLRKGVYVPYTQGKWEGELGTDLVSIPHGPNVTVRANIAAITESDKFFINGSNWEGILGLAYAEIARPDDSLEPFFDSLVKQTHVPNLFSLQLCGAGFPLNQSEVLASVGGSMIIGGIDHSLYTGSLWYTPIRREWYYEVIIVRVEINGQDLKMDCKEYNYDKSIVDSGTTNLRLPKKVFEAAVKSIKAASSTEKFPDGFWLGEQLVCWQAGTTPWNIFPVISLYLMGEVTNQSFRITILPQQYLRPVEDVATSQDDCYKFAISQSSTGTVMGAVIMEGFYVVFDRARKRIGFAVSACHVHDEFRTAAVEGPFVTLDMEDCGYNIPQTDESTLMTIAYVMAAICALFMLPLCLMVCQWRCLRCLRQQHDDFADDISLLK
IC50 [1] [nM],IC50 [2] [nM],Compound
609,92.6,"COc1ncccc1-c1ccc2c(c1)[C@@]1(COC(N)=N1)c1cc(N3CCC(F)(F)CC3)nc(OC)c1O2 [Example 852, (5S)-3-(4,4-difluoro-1-piperidinyl)-1-methoxy-7-(2-methoxy-3-pyridinyl)spiro[chromeno[2,3-c]pyridine-5,4′-[1,3]oxazol]-2′-amine]"
85,4,"C=CCN(C)c1cc(F)c2c(c1)[C@]1(COC(N)=N1)c1cc(-c3cccnc3F)ccc1O2 [Example 853, (4S)-4′-fluoro-7′-(2-fluoro-3-pyridinyl)-N~2~′-methyl-N~2~′-2-propen-1-ylspiro[1,3-oxazole-4,9′-xanthene]-2,2′-diamine]"
17,4.4,"CN(c1cc(F)c2c(c1)[C@]1(COC(N)=N1)c1cc(-c3cccnc3F)ccc1O2)C1COC1 [Example 854, (4S)-4′-fluoro-7′-(2-fluoro-3-pyridinyl)-N~2~′-methyl-N~2~′-3-oxetanylspiro[1,3-oxazole-4,9′-xanthene]-2,2′-diamine]"
2,0.7,"NC1=N[C@@]2(CO1)c1cc(-c3cccnc3F)ccc1Oc1c(F)cc(N3CC4(CCCO4)C3)cc12 [Example 855, (4S)-4′-fluoro-7′-(2-fluoro-3-pyridinyl)-2′-(5-oxa-2-azaspiro[3.4]oct-2-yl)spiro[1,3-oxazole-4,9′-xanthen]-2-amine]"
4,0.6,"NC1=N[C@@]2(CO1)c1cc(-c3cccnc3F)ccc1Oc1c(F)cc(N3CC4(CCCOC4)C3)cc12 [Example 856, (4S)-4′-fluoro-7′-(2-fluoro-3-pyridinyl)-2′-(6-oxa-2-azaspiro[3.5]non-2-yl)spiro[1,3-oxazole-4,9′-xanthen]-2-amine]"
18,0.5,"NC1=N[C@@]2(CO1)c1cc(-c3c(F)ccnc3F)ccc1Oc1c(F)cc(-c3ncccn3)cc12 [Example 858, (4S)-7′-(2,4-difluoro-3-pyridinyl)-4′-fluoro-2′-(2-pyrimidinyl)spiro[1,3-oxazole-4,9′-xanthen]-2-amine]"
11,0.5,"Cn1cc(-c2cc(F)c3c(c2)[C@]2(COC(N)=N2)c2cc(-c4c(F)ccnc4F)ccc2O3)cn1 [Example 859, (4S)-7′-(2,4-difluoro-3-pyridinyl)-4′-fluoro-2′-(1-methyl-1H-pyrazol-4-yl)spiro[1,3-oxazole-4,9′-xanthen]-2-amine]"
15,1,"NC1=N[C@@]2(CO1)c1cc(-c3cccnc3)c(F)cc1Oc1c(F)cc(N3CCOCC3)cc12 [Example 861, (4S)-3′,5′-difluoro-7′-(4-morpholinyl)-2′-(3-pyridinyl)spiro[1,3-oxazole-4,9′-xanthen]-2-amine]"
11,0.3,"CC(C)(C#N)COc1cc(F)c2c(c1)[C@]1(COC(N)=N1)c1cc(-c3cccnc3F)c(F)cc1O2 [Example 862, 3-(((4S)-2-amino-4′,6′-difluoro-7′-(2-fluoro-3-pyridinyl)spiro[1,3-oxazole-4,9′-xanthen]-2′-yl)oxy)-2,2-dimethylpropanenitrile]"
2360,80.1,"CC(C)(C#N)COc1cc(F)c2c(c1)[C@@]1(COC(N)=N1)c1cc(-c3cccnc3F)c(F)cc1O2 [Example 863, 3-(((4R)-2-amino-4′,6′-difluoro-7′-(2-fluoro-3-pyridinyl)spiro[1,3-oxazole-4,9′-xanthen]-2′-yl)oxy)-2,2-dimethylpropanenitrile]"
30,1.1,"NC1=N[C@@]2(CO1)c1cc(-c3cccnc3)c(F)cc1Oc1c(F)cc(C3CCOCC3)cc12 [Example 864, (4S)-3′,5′-difluoro-2′-(3-pyridinyl)-7′-(tetrahydro-2H-pyran-4-yl)spiro[1,3-oxazole-4,9′-xanthen]-2-amine]"
5,0.3,"NC1=N[C@@]2(CO1)c1cc(-c3cccnc3F)c(F)cc1Oc1c(F)cc(C3=CCCOC3)cc12 [Example 865, (4S)-7′-(5,6-dihydro-2H-pyran-3-yl)-3′,5′-difluoro-2′-(2-fluoro-3-pyridinyl)spiro[1,3-oxazole-4,9′-xanthen]-2-amine]"
1720,62.3,"NC1=N[C@]2(CO1)c1cc(-c3cccnc3F)c(F)cc1Oc1c(F)cc(C3=CCCOC3)cc12 [Example 866, (4R)-7′-(5,6-dihydro-2H-pyran-3-yl)-3′,5′-difluoro-2′-(2-fluoro-3-pyridinyl)spiro[1,3-oxazole-4,9′-xanthen]-2-amine]"
1130,52.1,"NC1=N[C@]2(CO1)c1cc(-c3cccnc3F)c(F)cc1Oc1c(F)cc(C3=CCOCC3)cc12 [Example 868, (4R)-7′-(3,6-dihydro-2H-pyran-4-yl)-3′,5′-difluoro-2′-(2-fluoro-3-pyridinyl)spiro[1,3-oxazole-4,9′-xanthen]-2-amine]"
6570,157,"NC1=N[C@]2(CO1)c1cc(-c3cccnc3F)c(F)cc1Oc1c(F)cc(N3CCOCC3)cc12 [Example 870, (4R)-3′,5′-difluoro-2′-(2-fluoro-3-pyridinyl)-7′-(4-morpholinyl)spiro[1,3-oxazole-4,9′-xanthen]-2-amine]"
6470,179,"NC1=N[C@]2(CO1)c1cc(-c3cccnc3F)c(F)cc1Oc1c(F)cc(C3CCOCC3)cc12 [Example 871, (4R)-3′,5′-difluoro-2′-(2-fluoro-3-pyridinyl)-7′-(tetrahydro-2H-pyran-4-yl)spiro[1,3-oxazole-4,9′-xanthen]-2-amine]"
15,0.6,"NC1=N[C@@]2(CO1)c1cc(-c3cccnc3F)c(F)cc1Oc1c(F)cc(C3CCOCC3)cc12 [Example 872, (4S)-3′,5′-difluoro-2′-(2-fluoro-3-pyridinyl)-7′-(tetrahydro-2H-pyran-4-yl)spiro[1,3-oxazole-4,9′-xanthen]-2-amine]"
7,0.3,"NC1=N[C@@]2(CS1)c1cc(-c3cncnc3)c(F)cc1Oc1c(F)cc(C3=CCCOC3)cc12 [Example 873, (4S)-7′-(5,6-dihydro-2H-pyran-3-yl)-3′,5′-difluoro-2′-(5-pyrimidinyl)spiro[1,3-thiazole-4,9′-xanthen]-2-amine]"
506,32.5,"NC1=N[C@]2(CS1)c1cc(-c3cncnc3)c(F)cc1Oc1c(F)cc(C3=CCCOC3)cc12 [Example 874, (4R)-7′-(5,6-dihydro-2H-pyran-3-yl)-3′,5′-difluoro-2′-(5-pyrimidinyl)spiro[1,3-thiazole-4,9′-xanthen]-2-amine]"
8,0.5,"CC1(COc2cc(F)c3c(c2)[C@]2(CSC(N)=N2)c2cc(-c4cncnc4)c(F)cc2O3)COC1 [Example 875, (4S)-3′,5′-difluoro-7′-((3-methyl-3-oxetanyl)methoxy)-2′-(5-pyrimidinyl)spiro[1,3-thiazole-4,9′-xanthen]-2-amine]"
634,44.9,"CC1(COc2cc(F)c3c(c2)[C@@]2(CSC(N)=N2)c2cc(-c4cncnc4)c(F)cc2O3)COC1 [Example 876, (4R)-3′,5′-difluoro-7′-((3-methyl-3-oxetanyl)methoxy)-2′-(5-pyrimidinyl)spiro[1,3-thiazole-4,9′-xanthen]-2-amine]"
3000,183,"CC1(COc2cc(F)c3c(c2)[C@@]2(CSC(N)=N2)c2cc(-c4cccnc4)c(F)cc2O3)COC1 [Example 877, (4R)-3′,5′-difluoro-7′-((3-methyl-3-oxetanyl)methoxy)-2′-(3-pyridinyl)spiro[1,3-thiazole-4,9′-xanthen]-2-amine]"
8,0.4,"CC1(COc2cc(F)c3c(c2)[C@]2(CSC(N)=N2)c2cc(-c4cccnc4)c(F)cc2O3)COC1 [Example 878, (4S)-3′,5′-difluoro-7′-((3-methyl-3-oxetanyl)methoxy)-2′-(3-pyridinyl)spiro[1,3-thiazole-4,9′-xanthen]-2-amine]"
11,0.3,"NC1=N[C@@]2(CS1)c1cc(-c3cccnc3F)c(F)cc1Oc1c(F)cc(N3CCOCC3)cc12 [Example 879, (4S)-3′,5′-difluoro-2′-(2-fluoro-3-pyridinyl)-7′-(4-morpholinyl)spiro[1,3-thiazole-4,9′-xanthen]-2-amine]"
≥ 10000,1230,"NC1=N[C@]2(CS1)c1cc(-c3cccnc3F)c(F)cc1Oc1c(F)cc(N3CCOCC3)cc12 [Example 880, (4R)-3′,5′-difluoro-2′-(2-fluoro-3-pyridinyl)-7′-(4-morpholinyl)spiro[1,3-thiazole-4,9′-xanthen]-2-amine]"
23,0.5,"NC1=N[C@@]2(CS1)c1cc(-c3cccnc3)c(F)cc1Oc1c(F)cc(C3=CCOCC3)cc12 [Example 881, (4S)-7′-(3,6-dihydro-2H-pyran-4-yl)-3′,5′-difluoro-2′-(3-pyridinyl)spiro[1,3-thiazole-4,9′-xanthen]-2-amine]"
≥ 10000,617,"NC1=N[C@]2(CS1)c1cc(-c3cccnc3)c(F)cc1Oc1c(F)cc(C3=CCOCC3)cc12 [Example 882, (4R)-7′-(3,6-dihydro-2H-pyran-4-yl)-3′,5′-difluoro-2′-(3-pyridinyl)spiro[1,3-thiazole-4,9′-xanthen]-2-amine]"
50,0.3,"NC1=N[C@@]2(CS1)c1cc(-c3cccnc3)c(F)cc1Oc1c(F)cc(C3=CCCOC3)cc12 [Example 883, (4S)-7′-(5,6-dihydro-2H-pyran-3-yl)-3′,5′-difluoro-2′-(3-pyridinyl)spiro[1,3-thiazole-4,9′-xanthen]-2-amine]"
≥ 10000,162,"NC1=N[C@]2(CS1)c1cc(-c3cccnc3)c(F)cc1Oc1c(F)cc(C3=CCCOC3)cc12 [Example 884, (4R)-7′-(5,6-dihydro-2H-pyran-3-yl)-3′,5′-difluoro-2′-(3-pyridinyl)spiro[1,3-thiazole-4,9′-xanthen]-2-amine]"

# — patent US8883782B2, “Spiro-tetracyclic ring compounds as beta-secretase modulators and methods of use” (Amgen Inc., priority 2010, dated 2014)
